Experimental data as given in patent publication US5811391A, “Cyclic CS-1 peptidomimetics, compositions and methods of using same” (Cytel Corporation, priority 1995, dated 1998).
pIC50: −log10 of the molar value. Positions of bridges follow the written chain, without caps; N, C: chain ends. Non-standard residues stand in square brackets, D forms with d. Residues, ends and D or L forms follow the SMILES beside them. *: point of attachment. Pen = CC(C)(S)[C@H](N)C(=O)O; PhAc = O=C(Cc1ccccc1)*

Target: VLA-4 (Homo sapiens, UniProt P05556+P13612)
Assay: In vitro binding assay: 51Cr-labeled Jurkat cells to solid phase-bound CS-1 peptide (SEQ ID NO:5)
Type: cell-based
Design: inflammatory cells that contain the VLA-4 receptor [Jurkat cells; host or cells: Jurkat cells (human T lymphoblastic line)
Conditions: for Relative Potency: CS-1; for Potency in inhibiting Jurkat cell binding to CS-1 relative to standard 10-mer of SEQ ID NO:6: times/fold more potent than SEQ ID NO:6
Experimental: Binding inhibition is measured here as a concentration of peptide that inhibits one-half the binding between a standard number of Jurkat cells and a standard amount of CS-1 peptide bound to the surface of a microtiter plate well. Those concentrations are conveniently expressed as IC50 values, smaller numbers indicating a lower concentration required to inhibit 50 percent binding and therefore greater potency. Further specifics of this assay are provided hereinafter.
Jurkat cells (ATCC TIB 152), a human T lymphoblastic line, labeled with ^51 chromium were used to assay in vitro binding inhibition provided by various peptides discussed herein.
The plates were prepared as follows: The 25-mer CS-1 peptide (SEQ ID NO:5) dissolved at 0.5-1 μg/ml in a buffer of 0.1M NaHCO3 at pH 9.5 that also contained 10 μg/ml of bovine serum albumin (BSA) or a conjugate of the CS-1 peptide linked to ovalbumin (CS-1-OVA) dissolved at 1-2.5 μg/ml in the same buffer was used as the substrate. Each well of the microtiter plates was coated with 50 μl of substrate or buffer alone for controls. The wells were permitted to dry out completely and were then rinsed twice with PBS at pH 7.4. Non-specific binding sites of each well were then blocked using 200 μl per well of RPMI/1 percent BSA for two hours at room temperature. Both solid phase-affixed substrates provided similar results.
Jurkat cells (3-5×10^6 cells) were placed into a 15 ml FALCON™ round-bottom tube with a cap. The tube was centrifuged, and the extra medium was then removed.
Two hundred microliters of a ^51 Cr labeling solution were added to the centrifuged cells and maintained in contact with the cells for 90-120 minutes in a warm room. This procedure typically provides about 50,000-100,000 cpm/well with about 80-100 percent cell viability. Longer contact times provide a greater amount of labeling but lower cell viability.
The labeled cells were washed with (i) complete medium, (ii) 1mM EDTA/PBS and then (iii) RPM1/1 percent BSA free of serum components. The cells were centrifuged after each washing. The cells were finally resuspended in serum-free RPMI/1 percent BSA at a concentration of 1×10^6 viable cells/ml, which provides a concentration that is diluted by one-half in the assay.
Cyclic inhibitor peptides were prepared as stock solutions at 20 mg/ml in DMSO in 1.5 ml cryogenic screwcap vials, and were stored at -70° C. Using FLOW™ round-bottom or V-bottom microtiter plates, the inhibitor peptides were prepared at twice the assay concentration in RPMI/1 percent BSA at 60 μl/well.
Four initial dilutions were typically used.
The ^51 Cr-labeled cells (1×10^6 cells at 60 μl/well) were then admixed with the diluted cyclic peptide solutions. The admixtures were maintained at room temperature (about 22° C.) for 30 minutes.
One hundred microliters of each inhibitor peptide/cell admixture were transferred to the substrate-coated wells. This was done in triplicate for each dilution. The resulting plates were incubated for 30 minutes at 37° C. and then washed gently three times with RPMI/1 percent BSA at 200 μl/well. Binding was observed microscopically, particularly after the second wash.
The bound cells were then lysed by the addition of a 0.5 percent solution of sodium dodecylsulfate in water at 100 μl/well. The resulting solutions were then processed for counting and calculation of IC50 values following usual procedures. Appropriate positive and negative controls were used with each plate so that the results of separate assays could be normalized and compared.
The potency data of Table 1 and Table 2 are so normalized. The absolute IC50 value for the peptide of SEQ ID NO:7 is 0.3 μM.

[1] = Table 2, normalized IC50 potency relative to standard peptide SEQ ID NO:6, Jurkat cells
[2] = Table 1, normalized IC50 potency relative to standard peptide SEQ ID NO:6 (=1), Jurkat cells

Chain of VLA-4 (P13612 34-1032): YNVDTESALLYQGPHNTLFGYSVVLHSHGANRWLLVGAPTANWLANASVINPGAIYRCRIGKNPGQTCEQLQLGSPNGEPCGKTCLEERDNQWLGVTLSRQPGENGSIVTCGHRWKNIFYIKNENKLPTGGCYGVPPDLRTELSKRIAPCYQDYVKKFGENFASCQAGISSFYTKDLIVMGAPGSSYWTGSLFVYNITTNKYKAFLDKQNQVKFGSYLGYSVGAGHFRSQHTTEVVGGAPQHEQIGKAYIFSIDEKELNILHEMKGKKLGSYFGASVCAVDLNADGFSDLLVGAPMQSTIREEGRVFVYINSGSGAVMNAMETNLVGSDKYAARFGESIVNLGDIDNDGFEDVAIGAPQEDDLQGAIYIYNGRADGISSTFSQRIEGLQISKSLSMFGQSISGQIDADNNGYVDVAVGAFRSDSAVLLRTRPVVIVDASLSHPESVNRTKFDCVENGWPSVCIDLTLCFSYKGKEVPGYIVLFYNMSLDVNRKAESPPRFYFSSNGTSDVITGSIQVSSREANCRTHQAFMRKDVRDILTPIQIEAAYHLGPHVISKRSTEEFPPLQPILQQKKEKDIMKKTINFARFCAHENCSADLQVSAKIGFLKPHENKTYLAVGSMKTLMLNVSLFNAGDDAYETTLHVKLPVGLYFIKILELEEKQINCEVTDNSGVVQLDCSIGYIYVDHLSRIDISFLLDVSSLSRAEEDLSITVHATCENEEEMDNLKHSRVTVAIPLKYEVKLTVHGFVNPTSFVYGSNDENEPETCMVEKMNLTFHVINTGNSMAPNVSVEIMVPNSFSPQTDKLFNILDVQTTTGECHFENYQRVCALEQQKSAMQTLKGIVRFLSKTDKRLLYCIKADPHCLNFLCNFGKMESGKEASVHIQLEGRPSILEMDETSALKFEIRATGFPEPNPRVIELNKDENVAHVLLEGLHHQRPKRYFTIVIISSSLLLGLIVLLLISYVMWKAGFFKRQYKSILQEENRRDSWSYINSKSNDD
Chain of VLA-4 (P05556 21-798): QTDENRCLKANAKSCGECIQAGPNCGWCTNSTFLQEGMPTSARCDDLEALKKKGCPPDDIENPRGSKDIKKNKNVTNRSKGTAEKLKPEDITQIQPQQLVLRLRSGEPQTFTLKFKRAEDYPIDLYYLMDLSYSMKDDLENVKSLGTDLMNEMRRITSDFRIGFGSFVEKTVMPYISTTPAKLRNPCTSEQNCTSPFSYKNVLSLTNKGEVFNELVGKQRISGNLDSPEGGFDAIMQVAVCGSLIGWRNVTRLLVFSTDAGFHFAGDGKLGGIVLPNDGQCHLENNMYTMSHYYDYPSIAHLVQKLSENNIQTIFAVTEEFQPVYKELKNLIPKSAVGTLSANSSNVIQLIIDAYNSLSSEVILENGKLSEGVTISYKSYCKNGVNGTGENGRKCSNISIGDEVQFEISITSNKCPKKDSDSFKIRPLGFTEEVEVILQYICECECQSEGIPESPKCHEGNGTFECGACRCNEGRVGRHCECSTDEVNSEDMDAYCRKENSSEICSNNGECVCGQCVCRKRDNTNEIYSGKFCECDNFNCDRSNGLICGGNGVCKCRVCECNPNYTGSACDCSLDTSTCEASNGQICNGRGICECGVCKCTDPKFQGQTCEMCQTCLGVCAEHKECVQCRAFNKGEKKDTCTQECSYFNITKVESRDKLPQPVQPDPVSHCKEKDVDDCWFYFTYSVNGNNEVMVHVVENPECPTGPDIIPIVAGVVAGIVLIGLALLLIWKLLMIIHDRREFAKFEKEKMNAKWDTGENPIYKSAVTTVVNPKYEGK

| Structure (SMILES) | Relative Potency [2] | other results |
| --- | --- | --- |
| CC(=O)N[C@H]1CSSC[C@@H](C(=O)N2CCC[C@@H]2C(N)=O)NC(=O)[C@H](CC(=O)O)NC(=O)[C@H](CC(C)C)NC1=O (Ac-CLDC[dP]-NH2; disulfide 1-4) | – | Relative Potency [1]: 0 |
| CC(C)C[C@@H]1NC(=O)[C@H](Cc2ccccc2)NC(=O)[C@H](CCC(=O)O)NC(=O)[C@@H]2CCCN2C(=O)CNC(=O)[C@@H](N)CSSC[C@@H](C(N)=O)NC(=O)[C@@H]2CCCN2C(=O)[C@H](Cc2ccccc2)NC(=O)[C@H](CC(=O)O)NC1=O (H-CGPEFLDFPC-NH2; disulfide 1-10) | – | Relative Potency [1]: 6.26 |
| NC(=O)[C@@H]1CSSC[C@H](NC(=O)[C@H](N)Cc2ccccc2)C(=O)N[C@@H](CC(=O)O)C(=O)N[C@@H](Cc2ccccc2)C(=O)N1 (H-[dF]CDFC-NH2; disulfide 2-5) | – | Relative Potency [1]: 3.13 |
| CC1(C)SSC[C@H](C(N)=O)NC(=O)[C@H](Cc2ccccc2)NC(=O)[C@H](CC(=O)O)NC(=O)[C@H]1NC(=O)Cc1ccccc1 [.phi.AcJDFc-NH2] (PhAc-[Pen]DF[dC]-NH2; disulfide 1-4) | 4 | – |
| CC(=O)N[C@@H](CC(C)C)C(=O)N[C@@H](CC(=O)O)C(=O)N[C@@H](Cc1ccccc1)C(N)=O [AcLDF-NH2] (Ac-Leu-Asp-Phe-NH2) | < 1 | – |
| CC(C)C[C@H](N)C(=O)N[C@@H](CC(=O)O)C(=O)N[C@@H](Cc1ccccc1)C(N)=O [LDF-NH2] (H-Leu-Asp-Phe-NH2) | 0 | – |
| CC(C)C[C@H](N)C(=O)N[C@@H](CC(=O)O)C(=O)N[C@H](C(N)=O)C(C)C [LDV-NH2, reference compound] (H-Leu-Asp-Val-NH2) | 0 | Potency in inhibiting Jurkat cell binding to CS-1 relative to standard 10-mer of SEQ ID NO:6: zero |
| CC(C)C[C@@H]1NC(=O)[C@H](Cc2ccccc2)NC(=O)[C@@H](N)CSSC[C@@H](C(N)=O)NC(=O)[C@@H]2CCCN2C(=O)[C@H](Cc2ccccc2)NC(=O)[C@H](CC(=O)O)NC1=O [SEQ ID NO:10, CFLDFPC-N2] (H-CFLDFPC-NH2; disulfide 1-7) | 253 | inhibition of binding to CS-1 (in words): excellent inhibitors; pIC50 (Jurkat cells, solid phase-bound CS-1, read-out: absolute value of IC50): ~6.22; Potency in inhibiting Jurkat cell binding to CS-1 relative to standard 10-mer of SEQ ID NO:6: about 253 |
| NC(=O)[C@@H]1CSSC[C@H](NC(=O)[C@@H](N)Cc2ccccc2)C(=O)N[C@@H](CC(=O)O)C(=O)N[C@@H](Cc2ccccc2)C(=O)N2CCC[C@H]2C(=O)N1 [SEQ ID NO:12, FCDFPC-NH2] (H-FCDFPC-NH2; disulfide 2-6) | 131 | – |
| CC(C)C[C@@H]1NC(=O)[C@H](Cc2ccccc2)NC(=O)[C@H](CCC(=O)O)NC(=O)[C@@H]2CCCN2C(=O)[C@@H](N)CSSC[C@@H](C(N)=O)NC(=O)[C@@H]2CCCN2C(=O)[C@H](Cc2ccccc2)NC(=O)[C@H](CC(=O)O)NC1=O [SEQ ID NO:16, CPEFLDFPC-NH2] (H-CPEFLDFPC-NH2; disulfide 1-9) | 56 | – |
| CC(C)C[C@@H]1NC(=O)[C@H](Cc2ccccc2)NC(=O)[C@H](CCC(=O)O)NC(=O)[C@@H]2CCCN2C(=O)[C@@H](N)CSSC[C@@H](C(N)=O)NC(=O)[C@H](CO)NC(=O)[C@@H]2CCCN2C(=O)[C@H](Cc2ccccc2)NC(=O)[C@H](CC(=O)O)NC1=O [SEQ ID NO:19, CPEFLDFPSC-NH2] (H-CPEFLDFPSC-NH2; disulfide 1-10) | 6 | – |
| CC(C)C[C@@H]1NC(=O)[C@H](Cc2ccccc2)NC(=O)[C@H](CCC(=O)O)NC(=O)[C@@H](N)CSSC[C@@H](C(N)=O)NC(=O)[C@@H]2CCCN2C(=O)[C@H](Cc2ccccc2)NC(=O)[C@H](CC(=O)O)NC1=O [SEQ ID NO:20, CEFLDFPC-NH2] (H-CEFLDFPC-NH2; disulfide 1-8) | 19 | – |
| CC(C)C[C@@H]1NC(=O)[C@H](Cc2ccccc2)NC(=O)[C@@H](N)CSSC[C@@H](C(N)=O)NC(=O)[C@H](C(C)C)NC(=O)[C@H]([C@@H](C)O)NC(=O)[C@H](CO)NC(=O)[C@@H]2CCCN2C(=O)[C@H](Cc2ccccc2)NC(=O)[C@H](CC(=O)O)NC1=O [SEQ ID NO:21, CFLDFPSTVC-NH2] (H-CFLDFPSTVC-NH2; disulfide 1-10) | 19 | – |
| CC(C)C[C@@H]1NC(=O)[C@H](Cc2ccccc2)NC(=O)[C@H](CCC(=O)O)NC(=O)[C@@H](N)CSSC[C@@H](C(N)=O)NC(=O)[C@H]([C@@H](C)O)NC(=O)[C@H](CO)NC(=O)[C@@H]2CCCN2C(=O)[C@H](Cc2ccccc2)NC(=O)[C@H](CC(=O)O)NC1=O [SEQ ID NO:22, CEFLDFPSTC-NH2] (H-CEFLDFPSTC-NH2; disulfide 1-10) | 9 | – |
| CC(C)C[C@@H]1NC(=O)[C@H](Cc2ccccc2)NC(=O)[C@H](CCC(=O)O)NC(=O)[C@@H]2CCCN2C(=O)CNC(=O)[C@@H](N)CSSC[C@@H](C(N)=O)NC(=O)[C@H](Cc2ccccc2)NC(=O)[C@H](CC(=O)O)NC1=O [SEQ ID NO:23, CGPEFLDFC-NH2] (H-CGPEFLDFC-NH2; disulfide 1-9) | 9 | – |

Now from value to compound, other results behind:

| Relative Potency [2] | Structure (SMILES) | other results |
| --- | --- | --- |
| < 1 | CC(=O)N[C@@H](CC(C)C)C(=O)N[C@@H](CC(=O)O)C(=O)N[C@H](C(N)=O)C(C)C [AcLDV-NH2, reference compound] (Ac-Leu-Asp-Val-NH2) | Potency in inhibiting Jurkat cell binding to CS-1 relative to standard 10-mer of SEQ ID NO:6: about 1 |
| 134 | CC(=O)N[C@H]1CSSC[C@@H](C(N)=O)NC(=O)[C@@H]2CCCN2C(=O)[C@H](Cc2ccccc2)NC(=O)[C@H](CC(=O)O)NC(=O)[C@H](CC(C)C)NC(=O)[C@H](Cc2ccccc2)NC1=O [SEQ ID NO:11, AcCFLDFPC-NH2] (Ac-CFLDFPC-NH2; disulfide 1-7) | – |
| 94 | CC1(C)SSC[C@@H](C(N)=O)NC(=O)[C@H](Cc2ccccc2)NC(=O)[C@H](CC(=O)O)NC(=O)[C@H]1NC(=O)Cc1ccccc1 [SEQ ID NO:14, .phi.AcJDFC-NH2] (PhAc-[Pen]DFC-NH2; disulfide 1-4) | – |
| 81 | CC(C)C[C@@H]1NC(=O)[C@H](Cc2ccccc2)NC(=O)[C@@H](N)CSSC[C@@H](C(N)=O)NC(=O)[C@H]([C@@H](C)O)NC(=O)[C@H](CO)NC(=O)[C@@H]2CCCN2C(=O)[C@H](Cc2ccccc2)NC(=O)[C@H](CC(=O)O)NC1=O [SEQ ID NO:15, CFLDFPSTC-NH2] (H-CFLDFPSTC-NH2; disulfide 1-9) | – |
| 52 | CC(=O)N[C@@H](Cc1ccccc1)C(=O)N[C@H]1CSSC[C@@H](C(N)=O)NC(=O)[C@H](Cc2ccccc2)NC(=O)[C@H](CC(=O)O)NC1=O [SEQ ID NO:17, AcFCDFC-NH2] (Ac-FCDFC-NH2; disulfide 2-5) | – |
| 41 | CC(=O)N[C@@H](Cc1ccccc1)C(=O)N[C@@H](CS)C(=O)N[C@@H](CC(=O)O)C(=O)N[C@@H](Cc1ccccc1)C(=O)N[C@@H](CS)C(N)=O [SEQ ID NO:18, AcFCDFC-NH2] (Ac-FCDFC-NH2) | – |
| 6 | CC(C)C[C@@H]1NC(=O)[C@H](Cc2ccccc2)NC(=O)[C@H](CCC(=O)O)NC(=O)[C@@H](N)CSSC[C@@H](C(N)=O)NC(=O)[C@H](CO)NC(=O)[C@@H]2CCCN2C(=O)[C@H](Cc2ccccc2)NC(=O)[C@H](CC(=O)O)NC1=O [SEQ ID NO:24, CEFLDFPSC-NH2] (H-CEFLDFPSC-NH2; disulfide 1-9) | – |
| 3 | NC(=O)[C@@H]1CSSC[C@H](NC(=O)[C@@H](N)Cc2ccccc2)C(=O)N[C@@H](CC(=O)O)C(=O)N[C@@H](Cc2ccccc2)C(=O)N1 [SEQ ID NO:25, FCDFC-NH2] (H-FCDFC-NH2; disulfide 2-5) | – |
